Series [1] concerns the target T1, catalytic subunit β1 of a proteasome (caspase-like activity) (Homo sapiens, UniProt P28072).
T1 construct: purchased Bioscience
Particulars: reported by Kaiser, M. et al., 2004; patent's result consistent; cited from earlier work.

Series [2] addresses T2, endogenous DHFR protein (Homo sapiens, UniProt P00374).
T2 construct: degradation (knockdown) of an endogenous DHFR protein in HeLa cells; endogenous in cells; host or cells: HeLa cells
T2 sequence (P00374 1-187): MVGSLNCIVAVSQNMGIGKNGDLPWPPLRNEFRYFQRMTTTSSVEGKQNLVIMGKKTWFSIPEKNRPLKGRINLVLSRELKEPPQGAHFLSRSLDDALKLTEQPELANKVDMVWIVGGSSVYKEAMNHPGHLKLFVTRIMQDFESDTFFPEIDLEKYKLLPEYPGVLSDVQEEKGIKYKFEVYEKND
Nature of the series: Degradation of endogenous DHFR protein in HeLa cells, Western blot analysis. Particulars: 50 μM, 100 μM or 200 μM, 16 hours after addition. The format is cell-based. On the technique in general: Immunoblotting shows a protein as a band on a membrane.

For series [3], the target named is T3, DHFR protein (Mus musculus, UniProt P00375).
T3 construct: administered intraperitoneally to C57BL/6J wild-type mice; from tissue; host or cells: C57BL/6J wild-type mice: liver, kidneys, heart
T3 sequence (P00375 1-187): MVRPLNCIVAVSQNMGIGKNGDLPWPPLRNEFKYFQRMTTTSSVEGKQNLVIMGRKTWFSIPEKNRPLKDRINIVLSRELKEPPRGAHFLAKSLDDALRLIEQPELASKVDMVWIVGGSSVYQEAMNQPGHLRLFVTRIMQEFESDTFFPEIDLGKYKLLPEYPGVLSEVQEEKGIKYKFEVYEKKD
Nature of the series: Degradation of DHFR protein in each tissue of mouse after administration, Western blot analysis. The format is in vivo. As to the method: MTX-CANDDY_MLN was dissolved in DMSO immediately before administration, and then dissolved in corn oil (Code No. 25606-55, Nacalai Tesque) so that the concentration of DMSO was 10 vol %, and then a dose of 50 mg/kg body weight or 100 mg/kg body weight was administered intraperitoneally to C57BL/6J wild-type mice (7 weeks old, male) (CLEA Japan, Inc.) (n=3). […] As a control, an injection carrier (corn oil containing 10 vol % DMSO) was used. The mice were kept under an environment of ad libitum access to food and water. The mice were dissected under deep anesthesia by Somnopentyl (Kyoritsu Seiyaku Corporation) 24 hours after administration. Abdominal section was performed, and then the liver, kidneys, and heart were sequentially extracted and flash frozen in liquid nitrogen. Each tissue frozen in liquid nitrogen was stored in a deep freezer at −80° C.
The frozen tissues (0.04 g) were each frozen and triturated, and then 980 μL of 1×TKM tissue lysis buffer (50 mM triethanolamine (pH 7.8), 50 mM KCl, 5 mM MgCl2, 0.25 M sucrose, 1 mM PMSF, protein inhibitors cocktail-EDTA free (Code No. 03969-21, Nacalai Tesque, Inc.), 1 mM DTT, and 5 μL/mL recombinant RNase inhibitor (40 U/μL, Cat No. 2313A, Lot No. K8402DA, TAKARA Bio)) were added, and dissolved by rotation for 15 minutes (1 rpm, 25° C.). Then, the resultant product was subjected to centrifugation (at 3000 rpm×15 minutes, 4° C.), and the supernatants (each tissue extract) were collected. The concentration of proteins in each tissue extract was quantified with a spectrophotometer using each tissue extract that had been diluted 20 times using DEPC-treated water.
Each tissue extract collected was subjected to Western blot analysis. An SDS-PAGE gel was prepared using TGX™ FastCast™ Acrylamide Kit, 12% (Bio-Rad). Electrophoresis samples were prepared in a 6×SDS-PAGE sample buffer (62.5 mM Tris-HCl pH 6.8, 2% SDS, 5% 2-mercaptoethanol, 10% glycerol, 0.25% BPB), and placed on a heat block at 95° C. for 5 minutes. The electrophoresis samples prepared were applied at 50 μg/well for detection of GAPDH, and applied at 100 μg/well for other detection. Electrophoresis was performed at 160 V for 60 minutes (electrophoresis buffer; 195 mM glycine, 25 mM Tris).
After electrophoresis, proteins were transferred to a PVDF membrane (Immobion™-P, Millipore) under conditions of 100 V and 1.5 hours using a tank-type blotting device and a transfer buffer (25 mM Tris-HCl, 195 mM glycine, 0.01% SDS, 15% methanol). […] Subsequently, the membrane was treated with a chemiluminescence reagent Immobilon™ Western (Millipore), and then chemiluminescence was detected using a lumino image analyzer LAS-3000 (FUJIFILM Corporation). Detected bands were quantified with an image processing software ImageJ (NIH).

Series [4] concerns the target T4, 20S proteasome (Homo sapiens, UniProt P28072+P28074+Q99436).
T4 construct: purchased Bioscience
Nature of the series: Affinity with a proteasome evaluated from 20S proteasome assay kit. It counts as biochemical. The following applies: suggested from concentration dependent inhibitory activity against β1, β2, β5. How it is done:
In Reference Example 2, the proteasome inhibitory activity of TMP-CANDDY_DMT and the affinity of TMP-CANDDY_DMT with a proteasome were evaluated. As a positive control, MG-132 as a proteasome inhibitor was used.
(§1) For evaluation, 20S Proteasome StressXpress™ Assay Kit Gold (Bioscience) was used. AMC was measured by using Multi-Detection Microplate Reader (Synergy HT, BIO-TEK). The AMC was produced by cleaving the C-terminus of an AMC-binding proteasome fluorescence substrate specific to β subunits of a 20S proteasome, including β5 (chymotrypsin-like activity), β2 (trypsin-like activity), and β1 (caspase-like activity). The measuring wavelengths were 360 nm for excitation light (Ex.), and 460 nm for fluorescence (Em.).
(§2) In Reference Example 11, as in Reference Example 4, a proteasome inhibitory activity of TMP-CANDDY_ALLN and an affinity of TMP-CANDDY_ALLN with a proteasome were evaluated.

Series [5] deals with T5, catalytic subunit β5 of the proteasome (chymotrypsin-like activity) (Homo sapiens, UniProt P28074).
T5 construct: purchased Bioscience
Nature of the series: 20S proteasome inhibitory activity, catalytic subunit β5. It counts as biochemical. Particulars: AMC fluorescence substrate. How it is done:
as §1, §2

For series [6], the target named is T1, catalytic subunit β1 of a proteasome (caspase-like activity). Description: 20S proteasome inhibitory activity, catalytic subunit β1. The format is biochemical. Particulars: AMC fluorescence substrate. As to the method:
as §1, §2

Series [7] addresses T6, ecDHFR protein (Escherichia coli, UniProt P0ABQ4).
T6 construct: expressed in transfected cells; host or cells: HeLa cells, transient transfection with pMIR-DsRed-IRES-ecDHFR-HA-GFP
It counts as cell-based, human. The following applies: HeLa cells, 24 hours after addition, vs control (DMSO).

Series [8] addresses T7, catalytic subunit β2 of the proteasome (trypsin-like activity) (Homo sapiens, UniProt Q99436).
T7 construct: purchased Bioscience
Nature of the series: 20S proteasome inhibitory activity, catalytic subunit β2. Particulars: AMC fluorescence substrate. The format is biochemical. How it is done: as §1, §2

The target in series [9] is T6, ecDHFR protein. The format is cell-based, human. Particulars: HeLa cells.

Non-standard residues stand in square brackets, D forms with d. Residues, ends and D or L forms follow the SMILES beside them. Nle = CCCC[C@H](N)C(=O)O

Regarding `CCCC[C@@H](C=O)NC(=O)[C@H](CC(C)C)NC(=O)[C@H](CC(C)C)NC(C)=O` [ALLN, Calpain inhibitor I] (Ac-Leu-Leu-[Nle]-aldehyde), the “inhibition of β1 (caspase-like activity)” value in series [1] was “not inhibited”.
Regarding `CC(C)C[C@H](NC(=O)CNC(=O)c1cc(Cl)ccc1Cl)C(=O)NCCCCCCNC(=O)CC[C@H](NC(=O)c1ccc(N(C)Cc2cnc3nc(N)nc(N)c3n2)cc1)C(=O)O` [MTX-CANDDY_MLN], the “amount of endogenous DHFR protein” value in series [2] was “decreased in a concentration dependent manner”. In series [3] (intraperitoneal 50 or 100 mg/kg body weight, 24 hours after administration, heart), the “amount of DHFR protein in heart” value is listed as “reduction in the amount of the DHFR protein was not found”. Further, the “amount of DHFR protein in kidneys” value in series [3] (intraperitoneal 50 or 100 mg/kg body weight, 24 hours after administration, kidneys) is reported as “reduced in a concentration dependent manner”. The “amount of DHFR protein in liver” value in series [3] (intraperitoneal 50 or 100 mg/kg body weight, 24 hours after administration, liver) is “reduced in a concentration dependent manner”. Also, in [3] (suggested from DHFR degradation in tissues), the “transfer property to tissues (molecular kinetics)” value was “showed a higher transfer property in the liver and kidneys, as compared with the heart”.
On to `COc1nc(NCCCCCCNC(=O)COc2c(OC)cc(Cc3cnc(N)nc3N)cc2OC)nc(OC)n1` [TMP-CANDDY_DMT], for which the “affinity with a proteasome” value in series [4] was “moderate affinity with a proteasome”. The “proteasome inhibitory activity against β5 (chymotrypsin-like activity)” value in [5] is on record as “significantly lower proteasome inhibitory activity as compared with MG-132”. Besides, the “proteasome inhibitory activity against β1 (caspase-like activity)” value in series [6] is listed as “significantly lower proteasome inhibitory activity as compared with MG-132”. In series [7], the “degradation (knockdown) of ecDHFR protein (shift of GFP/DsRed ratio graph)” value is given as “degradation of the ecDHFR protein was induced”. Besides, in series [8], the “proteasome inhibitory activity against β2 (trypsin-like activity)” value is listed as “significantly lower proteasome inhibitory activity as compared with MG-132”. Besides, in series [9] (24 hours after addition, cycloheximide 50 μg/mL added after 12 hours), the “amount of ecDHFR protein” value is reported as “the amount of the ecDHFR protein was reduced”. For the same compound, the “degradation of ecDHFR protein when bortezomib is added together” value in series [9] (both TMP-CANDDY_DMT and bortezomib added, compared with TMP-CANDDY_DMT alone) is “degradation of the ecDHFR protein was inhibited”.

These data come from patent US20190369111A1, “MOLECULAR KINETICS EVALUATION METHOD AND SCREENING METHOD” (Tokyo University of Science Foundation, priority 2016, published 2019).
